Measurements: publication PMC9918900, “New Succinimide–Thiazolidinedione Hybrids as Multitarget Antidiabetic Agents: Design, Synthesis, Bioevaluation, and Molecular Modelling Studies” (Molecules, 2023)

How the values were obtained:
PTP1B = target: T1, PTP1B (Homo sapiens, UniProt P18031); assay: PTP1B assay (pNPP substrate); format: biochemical
T1 sequence (P18031 1-435): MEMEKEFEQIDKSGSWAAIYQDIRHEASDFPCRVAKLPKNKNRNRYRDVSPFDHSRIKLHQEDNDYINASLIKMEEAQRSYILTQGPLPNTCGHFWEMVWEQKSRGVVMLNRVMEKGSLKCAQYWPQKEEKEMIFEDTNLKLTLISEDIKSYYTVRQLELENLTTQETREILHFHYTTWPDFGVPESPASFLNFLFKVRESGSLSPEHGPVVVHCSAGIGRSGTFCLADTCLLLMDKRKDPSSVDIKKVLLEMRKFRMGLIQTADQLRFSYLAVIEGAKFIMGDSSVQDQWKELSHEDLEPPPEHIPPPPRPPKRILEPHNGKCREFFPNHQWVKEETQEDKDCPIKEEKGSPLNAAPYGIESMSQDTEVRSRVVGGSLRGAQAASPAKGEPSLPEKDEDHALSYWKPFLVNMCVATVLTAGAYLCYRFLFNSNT
Method: The aforementioned newly synthesize succinimides and thiazolidinedione hybrids were tested against the PTP1B enzyme to determine their ability to inhibit the negative regulation of insulin as well as leptin signaling. The PTP1B test was performed with a small modification to the method described in the publications. The enzyme efficiency was evaluated using […] (pNPP) as a substrate. For the buffer solution, 0.5 millimolar (mM) of ethylene diamine tetraacetic acid (EDTA), 1 mM of mercaptoethanol, 0.55 mM of dithiothreitol (DTT), and 12.49 mM of TRIS hydrochloride (ph = 7.4) were used. The experiment was carried out by mixing 10.0 μL of the test compound solutions with 20.0 μL of the enzyme (1 μg/mL), subsequently injecting 40.0 μL of 4.0 mM 4-nitrophenyl dihydrogen phosphate in 130.5 μL of the prescribed buffer in a microplate well at 37 °C for 10 min. pNP was formed during the enzymatic process, which was monitored for 30 min. The IC50 values were derived using a non-linear regression analysis of the fraction of the product generated vs. the log of the inhibitory concentration.

[1] = test system: streptozotocin-induced diabetic rats; assay: effect on serum lipid profile of diabetic animals; format: in vivo, Wistar rats; details: compared to diabetic control group
Method: The antidiabetic activity of the synthesized compound 10d was evaluated using a streptozotocin-induced diabetic rats model.
Male Wistar rats weighing 150 to 230 gm were used for the study which were housed in polyacrylic cages (no more than six animals per cage) with dimensions of 38 × 23 × 10 cm and maintained under standard laboratory conditions with a dark/light cycle of 14 h of dark and 10 h of light at a temperature of 25 °C. The animals were provided with a standard diet (dry pellet) and water ad libitum. Before the start of the experimental procedures, the rats were acclimatized to laboratory conditions for 10 days. All the experiments were approved and performed as per the guidelines of the Departmental Research Ethics Committee under letter No. DREC/050 [49].
(§1) Non-insulin-dependent diabetes mellitus was induced in fasted rats weighing 150–230 gm using a single dose of streptozotocin (STZ) at a dose of 60 mg/kg intraperitoneally after 15 min of the administration of nicotinamide at a 120 mg/kg dose i.p. Nicotinamide was prepared in normal saline while in citrate buffer (pH 4.5), STZ was prepared. After the induction of diabetes, the increase in the plasma glucose level was measured at 72 h and then measured on the 7th day to confirm hyperglycemia. For the diagnosis of diabetes, the threshold value of the fasting plasma glucose level was considered to be more than 126 mg/dl. For the study, only the animals with permanent NIIDM were utilized.
(§2) The animals were classified into 5 groups with 6 animals in each group (n = 6). Group I comprised of normal control rats which were daily administered drinking water only; group II served as diabetic control rats (disease group); group III served as the positive control and were administered 0.5 mg/kg of the standard drug glibenclamide; and group IV and V served as the test group rats and were administered the test compound 10d at 10 mg/kg and 20 mg/kg, respectively, for twenty-eight days. The fasting glucose concentration was measured on the 0, 7th, 14th, and 28th day of the administration of the extract. During the experimental tenure, the weights of the rats were determined daily and the mean change was recorded.
The animals were euthanized (sacrificed) via cervical dislocation on the 28th day to observe the biochemical parameters. The parameters studied were triglyceride (TGL), cholesterol, low-density lipoprotein, and high-density lipoprotein (LDL and HDL). The Minias Globe Diagnostic kits were used for cholesterol and TGL. Semi-autoanalyzers were used for the analysis. The serum samples from the rats were also checked for alanine aminotransferase (ALT), aspartate aminotransferase (AST), lactate dehydrogenase (LDH), serum alkaline phosphatase (ALP), and creatinine and urea levels utilizing commercially available kits of Crest Biosystems. The statistical analysis was also performed as per the previous procedure.

[2] = test system: streptozotocin-induced diabetic rats; assay: serum insulin level estimation; format: in vivo, Wistar rats; set-up: unit not given here; details: for Insulin Level (Mean ±SEM), Final Reading: 28th day
Method: as §1, §2
After the 28th day of treatment with the test compound 10d, the blood samples were taken for the determination of the insulin levels, which were measured with the help of GLAZYME INSULIN-EIA TEST.

human DPP-4 enzyme = target: T2, human DPP-4 enzyme (Homo sapiens, UniProt P27487); assay: DPP-4 activity bioassay; format: biochemical
T2 construct: purchased
Method: All succinimides and thiazolidinedione hybrids were tested for DPP-4 inhibitory effects on a human DPP-4 enzyme using the methodology published before. The DPP-4 kit was used to measure the inhibition. L-thiazolidine (P32/98) was included as a reference. The hybrids and DPP-4 enzyme were both adulterated 1/50 in the assay buffer (PH = 7.4, 25 mM Tris). Following that, a microplate well was filled with 5 μL of assay buffer, 3 μL of enzyme solution, and 2 μL of adequately diluted test chemical solutions. After a 12-min incubation period at 37.5 °C, a diluted substrate solution of 25 μL was added into the solution. A multi-mode reader was used to assess the fluorescence. […] PRISM5 was used to calculate the IC50 values and compare the inhibition ratio to the control without the inhibitor.

T2 sequence (P27487 whole entry): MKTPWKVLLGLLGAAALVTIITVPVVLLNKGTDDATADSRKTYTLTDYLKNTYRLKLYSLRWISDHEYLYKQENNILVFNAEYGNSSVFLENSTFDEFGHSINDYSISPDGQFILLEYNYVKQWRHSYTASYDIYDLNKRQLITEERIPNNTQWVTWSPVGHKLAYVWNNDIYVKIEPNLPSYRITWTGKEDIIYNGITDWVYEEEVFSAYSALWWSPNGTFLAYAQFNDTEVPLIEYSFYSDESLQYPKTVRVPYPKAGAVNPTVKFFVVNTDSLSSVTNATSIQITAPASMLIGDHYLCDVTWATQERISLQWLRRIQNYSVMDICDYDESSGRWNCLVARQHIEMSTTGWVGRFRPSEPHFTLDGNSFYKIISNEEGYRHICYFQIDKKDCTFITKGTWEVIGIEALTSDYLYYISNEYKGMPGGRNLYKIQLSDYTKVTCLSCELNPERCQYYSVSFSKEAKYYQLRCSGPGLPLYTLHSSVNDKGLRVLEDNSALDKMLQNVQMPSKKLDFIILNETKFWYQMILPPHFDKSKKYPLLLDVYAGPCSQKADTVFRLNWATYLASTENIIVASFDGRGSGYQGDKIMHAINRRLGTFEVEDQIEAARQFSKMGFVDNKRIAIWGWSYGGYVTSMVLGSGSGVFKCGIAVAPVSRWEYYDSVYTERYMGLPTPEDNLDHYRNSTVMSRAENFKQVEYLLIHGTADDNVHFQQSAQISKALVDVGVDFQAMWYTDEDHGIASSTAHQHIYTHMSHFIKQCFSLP

CC(C)(C=C1SC(=O)N(C(=O)CN2CCOCC2)C1=O)C1CC(=O)N(Cc2ccccc2)C1=O (centres unmarked) [10d]
IC50 (PTP1B): 3.64 µM | inhibition at 31.25 µM (PTP1B; 31.25 µM): 71.8% | inhibition at 62.5 µM (PTP1B; 62.5 µM): 74.7% | inhibition at 125 µM (PTP1B; 125 µM): 79% | inhibition at 250 µM (PTP1B; 250 µM): 84.5% | inhibition at 500 µM (PTP1B; 500 µM): 89.88 ± 0.89% | HDL level [1]: greater than before | LDL in serum [1]: significant decline | total cholesterol level in serum [1]: significant decline | triglyceride in serum [1]: significant decline | Insulin Level (Mean ±SEM), Initial Reading ([2]; 10mg (10 mg/kg) group): 0.81 ± 0.25 | Insulin Level (Mean ±SEM), Final Reading ([2]; 10mg (10 mg/kg) group): 0.65 ± 0.57 | Insulin Level (Mean ±SEM), Initial Reading ([2]; 20mg (20 mg/kg) group): 0.76 ± 0.38 | Insulin Level (Mean ±SEM), Final Reading ([2]; 20mg (20 mg/kg) group): 0.76 ± 0.81 | inhibition at 31.25 µM (human DPP-4 enzyme; 31.25 µM, read-out: DPP4 (inhibition) (converted)): 71.4% | inhibition at 62.5 µM (human DPP-4 enzyme; 62.5 µM, read-out: DPP4 (inhibition) (converted)): 76.5% | inhibition at 125 µM (human DPP-4 enzyme; 125 µM, read-out: DPP4 (inhibition) (converted)): 81.4% | inhibition at 250 µM (human DPP-4 enzyme; 250 µM, read-out: DPP4 (inhibition) (converted)): 85.3% | inhibition at 500 µM (human DPP-4 enzyme; 500 µM, read-out: DPP4 (inhibition)): 91.4 ± 1.49% | IC50 (human DPP-4 enzyme; read-out: IC50 DPP4): 4.22 µM
